Results from ChEMBL document CHEMBL3232855, “The discovery of N-((2H-tetrazol-5-yl)methyl)-4-((R)-1-((5r,8R)-8-(tert-butyl)-3-(3,5-dichlorophenyl)-2-oxo-1,4-diazaspiro[4.5]dec-3-en-1-yl)-4,4-dimethylpentyl)benzamide (SCH 900822): a potent and selective glucagon receptor antagonist” (J Med Chem, 2014).
Activity calls are given as the source filed them. The rule behind the calls is not given here.

Columns and labels:
[1] = biological target: Glucagon-like peptide 1 receptor (Homo sapiens, UniProt P43220); assay: Antagonist activity at human GLP-1R expressed in CHO cells assessed as inhibition of GLP-1-stimulated cAMP production preincubated for 30 mins followed by GLP-1 induction measured after 45 mins by LANCE assay; type: functional, cell-based
[2] = biological target: T1, Gastric inhibitory polypeptide receptor (Homo sapiens, UniProt P48546); assay: Antagonist activity at human GIPR assessed as inhibition of cAMP production; type: functional
T1 sequence (P48546 whole entry): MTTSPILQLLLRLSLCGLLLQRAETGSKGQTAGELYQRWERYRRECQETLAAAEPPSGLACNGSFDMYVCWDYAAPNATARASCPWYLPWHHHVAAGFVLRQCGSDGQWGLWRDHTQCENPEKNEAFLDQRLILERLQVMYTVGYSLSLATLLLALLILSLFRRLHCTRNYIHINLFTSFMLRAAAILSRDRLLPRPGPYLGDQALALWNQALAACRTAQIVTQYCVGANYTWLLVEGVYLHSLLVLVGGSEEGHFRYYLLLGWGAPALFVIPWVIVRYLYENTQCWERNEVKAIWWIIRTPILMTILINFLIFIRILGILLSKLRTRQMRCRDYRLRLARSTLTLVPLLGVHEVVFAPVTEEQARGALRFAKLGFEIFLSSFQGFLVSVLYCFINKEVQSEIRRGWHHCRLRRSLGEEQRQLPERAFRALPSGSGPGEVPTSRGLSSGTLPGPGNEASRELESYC

[3] = Plasma clearance in dog at 1 mg/kg, iv; type: ADME, organism-based, Canis lupus familiaris; design: dose 1 mg/kg, route intravenous
[4] = Volume of distribution at steady state in monkey at 3 mg/kg, iv; type: ADME, organism-based, Macaca mulatta; design: dose 3 mg/kg, route intravenous; conditions: rhesus monkey, in vivo, read-out: Vdss
Mus musculus = assay: Antidiabetic activity in diet-induced obese ICR mouse model assessed as decrease in fasting blood glucose level at 3 to 10 mg/kg, po measured at 4 hrs by glucometer; type: functional, organism-based
[5] = biological target: Kappa-type opioid receptor (Homo sapiens) (UniProt P41145); assay: Binding affinity to kappa opioid receptor (unknown origin) at 10 uM by agonist displacement assay relative to control
Glucagon receptor = Glucagon receptor (Homo sapiens, UniProt P47871); assay: Antagonist activity at human GCGR expressed in CHO cells assessed as inhibition of glucagon-stimulated cAMP production preincubated for 30 mins followed by glucagon induction measured after 45 mins by LANCE assay; type: functional, cell-based
[6] = Plasma concentration in diet-induced obese ICR mouse model at 3 mg/kg, po measured at 24 hrs by HPLC/MS/MS analysis; type: ADME, organism-based; design: dose 3 mg/kg, route oral
[7] = Volume of distribution at steady state in dog at 1 mg/kg, iv; type: ADME, organism-based, Canis lupus familiaris; design: dose 1 mg/kg, route intravenous; conditions: in vivo, read-out: Vdss

Sequence of Glucagon-like peptide 1 receptor (P43220 whole entry): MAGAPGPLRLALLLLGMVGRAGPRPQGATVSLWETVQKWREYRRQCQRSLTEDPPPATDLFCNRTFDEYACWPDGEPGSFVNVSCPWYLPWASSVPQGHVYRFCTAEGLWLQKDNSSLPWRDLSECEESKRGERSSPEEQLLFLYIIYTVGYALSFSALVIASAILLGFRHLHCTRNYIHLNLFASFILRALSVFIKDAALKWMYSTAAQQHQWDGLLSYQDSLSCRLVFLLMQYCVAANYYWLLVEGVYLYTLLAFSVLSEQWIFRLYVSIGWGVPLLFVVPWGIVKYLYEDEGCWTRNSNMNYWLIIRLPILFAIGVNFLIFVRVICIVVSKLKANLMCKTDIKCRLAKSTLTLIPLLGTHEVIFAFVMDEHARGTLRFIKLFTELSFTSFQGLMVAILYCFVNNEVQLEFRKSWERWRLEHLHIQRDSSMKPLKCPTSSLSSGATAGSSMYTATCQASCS
Sequence of Glucagon receptor (P47871 whole entry): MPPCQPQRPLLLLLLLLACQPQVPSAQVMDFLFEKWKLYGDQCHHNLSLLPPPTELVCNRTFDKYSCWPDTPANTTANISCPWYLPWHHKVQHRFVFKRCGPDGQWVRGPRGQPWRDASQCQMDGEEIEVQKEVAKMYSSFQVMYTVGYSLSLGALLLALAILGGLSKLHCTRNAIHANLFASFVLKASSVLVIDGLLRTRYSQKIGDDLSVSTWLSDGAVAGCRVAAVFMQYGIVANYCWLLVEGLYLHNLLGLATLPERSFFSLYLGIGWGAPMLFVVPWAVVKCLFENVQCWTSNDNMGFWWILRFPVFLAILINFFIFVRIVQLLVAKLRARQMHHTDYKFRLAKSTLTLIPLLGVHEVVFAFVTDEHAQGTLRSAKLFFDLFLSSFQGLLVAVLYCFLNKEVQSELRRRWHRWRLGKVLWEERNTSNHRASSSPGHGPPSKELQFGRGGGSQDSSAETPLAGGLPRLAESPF
Sequence of Kappa-type opioid receptor (Homo sapiens) (P41145 whole entry): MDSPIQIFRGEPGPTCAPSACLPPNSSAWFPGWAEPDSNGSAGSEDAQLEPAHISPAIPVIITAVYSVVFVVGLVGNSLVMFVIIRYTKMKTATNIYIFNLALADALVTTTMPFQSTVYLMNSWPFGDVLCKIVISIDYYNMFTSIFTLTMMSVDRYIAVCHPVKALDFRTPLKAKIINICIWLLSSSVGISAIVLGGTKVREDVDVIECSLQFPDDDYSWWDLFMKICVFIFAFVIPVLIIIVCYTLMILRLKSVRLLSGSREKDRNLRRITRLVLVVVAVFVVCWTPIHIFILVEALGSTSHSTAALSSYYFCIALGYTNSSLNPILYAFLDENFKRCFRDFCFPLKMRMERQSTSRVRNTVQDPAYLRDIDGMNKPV

SMILES: CC(C)(C)CC[C@H](c1ccc(C(=O)NCc2nn[nH]n2)cc1)N1C(=O)C(c2cc(Cl)cc(Cl)c2)=N[C@]12CC[C@@H](C(C)(C)C)CC2
- IC50 [1]: > 10 µM
- IC50 [2]: 2.1 µM
- clearance [3]: 0.018 L/h/kg
- Vd [4]: 0.4 L/kg
- Activity (Mus musculus): Active
- inhibition [5]: 75%
- IC50 (Glucagon receptor): 0.046 µM
- concentration at 24 h [6]: 0.43 µM
- Vd [7]: 0.1 L/kg
